Assay results reported in patent publication US6489329B2, “Pharmaceutical compositions for the treatment of rhinitis” (UCB S.A., priority 1996, dated 2002).
Counter-ions that a name gives are not always drawn.

Legend:
[1] = test system: patients suffering from pollen-associated allergic rhinitis; experiment: phase III multicenter double-blind 2-week study in pollen-associated (seasonal) allergic rhinitis; assay type: in vivo, human; details: for Incidence of asthenia / Incidence of headache / Incidence of insomnia / Incidence of somnolence / proportion of patients with at least one adverse effect / PDS0 (percentage of days with a maximal symptom score equal to 0), mean / PDS1 (percentage of days with a maximal symptom score inferior or equal to 1), mean: 2-week study; for Mean of maximal 5-symptom scores, Visit 2: control visit one week after visit 1, investigators' 4-point scale 0-3; for global evaluation: patients in categories "Good improvement" and "No more symptoms", grouped: end of 2-week study, capsule morning and evening, 5-point scale; for Mean of maximal 5-symptom scores, Visit 1: enrolment visit, investigators' 4-point scale 0-3; for PDS0 (percentage of days with a maximal symptom score equal to 0), mean / PDS1 (percentage of days with a maximal symptom score inferior or equal to 1), mean: maximal score of five symptoms
Procedure: (§1) The efficacy and safety of a composition of the invention were evaluated for the treatment of rhinitis, especially perennial and seasonal rhinitis, by the following phase III multicenter, double-blind studies. The composition of the invention was compared to:
(§2) For each study, patients enrolled were ranged in three therapeutic groups and were treated as follows:
(§3) The patients' clinical evaluations made by the investigators at the end of the studies were based on a 5-point scale (0=worsening; 1=no change; 2=slight improvement; 3=good improvement; 4=no more symptoms). The Cochran-Mantel-Haenszel test was used to compare the frequency distribution of the three groups, and for specific comparisons.
(§4) At home, patients had to fill a daily record card where the five following symptoms were evaluated: sneezing, runny nose, blocked nose, itchy nose and itchy eyes. The symptoms scores were based on a 4-point scale (0: absent; 1: mild; 2: moderate; 3: severe). […] Global comparisons were made using the Kruskal-Wallis test and specific comparisons were made with the Wilcoxon rank sum test.
(§5) Three visits were planned during the study: enrolment visit (Visit 1), control visit (Visit 2) one week after visit 1 and final visit (Visit 3). At visits 1 and 2, investigators evaluated the specific symptoms of allergic rhinitis (sneezing, rhinorrhea, nasal obstruction, nasal pruritus and ocular pruritus) using the 4-point scale (0: absent; 1: mild; 2: moderate; 3: severe). The rhinitis severity was evaluated by taking into account the maximal score of the five symptoms. The three groups were compared using the Cochran-Mantel-Haenszel test based on ranks.
(§6) The patients were asked about possible adverse events at each control visit. In each treatment group, adverse events were counted and grouped in classes. The frequency distributions of these adverse effect numbers were compared using the Cochran-Mantel-Haenszel test.
A total of 687 patients enrolled in this 2-week study, their ages ranging from 12 to 67 years. They had to be suffering from pollen-associated allergic rhinitis, with a prick-test or a RAST positive to pollen. […] On enrolment day, the patients had to be experiencing nasal obstruction and at least two of the four following symptoms: sneezing, rhinorrhea, nasal pruritus, ocular pruritus.

[2] = test system: patients suffering from perennial allergic rhinitis; experiment: phase III multicenter double-blind 3-week study in perennial allergic rhinitis; assay type: in vivo, human; details: for Mean of maximal 5-symptom scores, Visit 2: control visit one week after visit 1, investigators' 4-point scale 0-3; for global evaluation by the investigators: patients in categories "Good improvement" and "No more symptoms", grouped: end of treatment (visit 3), capsule morning and evening, 5-point scale; for Mean of maximal 5-symptom scores, Visit 1: enrolment visit, investigators' 4-point scale 0-3; for PDS0 (percentage of days with a maximal symptom score equal to 0), mean / PDS1 (percentage of days with a maximal symptom score inferior or equal to 1), mean: patients' daily record card, five symptoms, 3-week study
Procedure: as §1, §2, §3, §4, §5, §6
A total of 554 patients were enrolled in this 3-week study. These patients ranged in age from 12 to 67 years old. They had to suffer from perennial allergic rhinitis diagnosed at least one year prior to the study, with radio allergosorbent test (RAST) or prick-test positive to perennial allergens including dust, mites and/or animal danders. On enrolment day, patients had to have the following symptoms: nasal obstruction, sneezing and rhinorrhea.

Which Incidence of asthenia [1] does the source give for `O=C(O)COCCN1CCN(C(c2ccccc2)c2ccc(Cl)cc2)CC1` (racemic) [Cetirizine, 2-[2-[4-[(4-chlorophenyl)phenylmethyl]-1-piperazinyl]ethoxy]-acetic dihydrochloride] here?
Its Incidence of asthenia is 4%.

And the Incidence of headache [1]?
Its Incidence of headache is 4%.

And the Incidence of insomnia [1]?
Its Incidence of insomnia is 0%.

What about the Incidence of somnolence [1] of the same molecule?
Its Incidence of somnolence is 6%.

What about the “proportion of patients with at least one adverse effect” value [1] of the same molecule?
The value was 23%.

What about the “Mean of maximal 5-symptom scores, Visit 2” value (from here on “Mean … Visit 2”) [1] of the same molecule?
The value was 1.76.

What about the “global evaluation: patients in categories "Good improvement" and "No more symptoms", grouped” value [1] of the same molecule?
Its value is 56%.

What about the “Mean of maximal 5-symptom scores, Visit 1” value (“Mean … Visit 1” for short) [1] of the same molecule?
Its value is 2.77.

And the “PDS0 (percentage of days with a maximal symptom score equal to 0), mean” value [1]?
Its value is 6.41%.

What about the “PDS1 (percentage of days with a maximal symptom score inferior or equal to 1), mean” value [1] of the same molecule?
Its value is 39.81%.

And the “sedation, frequency of adverse event” value ([2]; comparison between the three groups)?
The value was “more frequent”.

And the “Mean … Visit 2” value [2]?
Its value is 1.82.

And the “global evaluation by the investigators: patients in categories "Good improvement" and "No more symptoms", grouped” value [2]?
Its value is 46%.

What about the “Mean … Visit 1” value [2] of the same molecule?
Its value is 2.66.

And the “PDS0 (percentage of days with a maximal symptom score equal to 0), mean” value [2]?
The value was 6.60%.

What about the “PDS1 (percentage of days with a maximal symptom score inferior or equal to 1), mean” value [2] of the same molecule?
The value was 43.26%.

For `CN[C@@H](C)[C@@H](O)c1ccccc1.Cl` [Pseudoephedrine, (1S,2S)2-methylamino-1-phenylpropan-1-ol hydrochloride], which Incidence of asthenia [1] is on record?
The Incidence of asthenia was 1%.

What about the Incidence of headache [1] of the same molecule?
Its Incidence of headache is 7%.

And the Incidence of insomnia [1]?
The Incidence of insomnia was 8.5%.

What about the Incidence of somnolence [1] of the same molecule?
The Incidence of somnolence was 3%.

What about the “proportion of patients with at least one adverse effect” value [1] of the same molecule?
Its value is 30%.

And the “Mean … Visit 2” value [1]?
The value was 1.82.

What about the “global evaluation: patients in categories "Good improvement" and "No more symptoms", grouped” value [1] of the same molecule?
The value was 58%.

What about the “Mean … Visit 1” value [1] of the same molecule?
The value was 2.78.

And the “PDS0 (percentage of days with a maximal symptom score equal to 0), mean” value [1]?
Its value is 5.44%.

What about the “PDS1 (percentage of days with a maximal symptom score inferior or equal to 1), mean” value [1] of the same molecule?
Its value is 37.21%.

And the “Mean … Visit 2” value [2]?
Its value is 1.81.

What about the “global evaluation by the investigators: patients in categories "Good improvement" and "No more symptoms", grouped” value [2] of the same molecule?
The value was 48%.

And the “Mean … Visit 1” value [2]?
The value was 2.72.

And the “PDS0 (percentage of days with a maximal symptom score equal to 0), mean” value [2]?
The value was 6.97%.

What about the “PDS1 (percentage of days with a maximal symptom score inferior or equal to 1), mean” value [2] of the same molecule?
The value was 41.57%.
